Laboratory results taken from patent publication US20180092360A1, “MICROBICIDAL COMPOSITION” (Dow Global Technologies LLC, priority 2015, published 2018).
Like-named read-outs stand apart in the source and are kept apart here.

System: bacterial pool of seven organisms
Experiment: Dow time-kill test in pH 7.4 hand dish-washing liquid, with Kull synergy index
Assay type: cell-based
Details: for Concentration required to achieve >=4 Log bacterial counts reduction: bacterial pool, pH 7.4 hand dish-washing liquid, 37° C., active ingredient basis
Protocol: Four biocides and their combinations were tested at different concentration ranges. […] All biocide solutions were prepared and diluted in sterile DI water and used within 2 hours. These biocides are commercially available from The Dow Chemical Company. [table] A bacteria pool was used for testing. 24 hr bacterial cultures were obtained in TSB (Tryptic Soy Broth) media at 37° C. incubation for the seven organisms. The bacterial pool of seven organisms was prepared by taking equal parts of a 24 hour stationary phase aliquot from each bacterial culture and mixing them together. […] The time-kill tests were carried out to determine the threshold concentration of the biocide products in pH 7.4 hand dish-washing liquid. […] Biocides were then added into this bacterial suspension at various levels and mixed immediately. The mixed samples were then incubated at 37° C. At 24 hrs, viable bacteria remaining in the hand dish-washing samples were determined by 1:10 serial dilutions, transferring 20 ul aliquot of each sample into 180 ul TSB/Resazurin media. Triplicate tests were conducted. MPN method was used to determine the microbial concentration at after 24 hours incubation at 37° C. […] One measure of synergism is the industrially accepted method described by Kull, […]. and Mayer, R. L., in Applied Microbiology 9:538-541 (1961), using the ratio determined by the formula: Qa/QA+Qb/QB=Synergy Index (“SI”) wherein: • QA=concentration of compound A (first component) in ppm, acting alone, which produced an end point (MIC of Compound A). • Qa=concentration of compound A in ppm, in the mixture, which produced an end point. • QB=concentration of compound B (second component) in ppm, acting alone, which produced an end point (MIC of Compound B). • Qb=concentration of compound B in ppm, in the mixture, which produced an end point. When the sum of Qa/QA and Qb/QB is greater than one, antagonism is indicated. […] The lower the SI, the greater the synergy shown by that particular mixture. The minimum inhibitory concentration (MIC) of a microbicide is the lowest concentration tested under a specific set of conditions that prevents the growth of added microorganisms.

Row | SMILES | Concentration required to achieve >=4 Log bacterial counts reduction (24 h) [ppm] | Minimum Inhibitory Concentration (ppm) SOPP (Bacterial Pool, 24 hours, SOPP alone (QB) or SOPP in mixture with BIT (Qb)) [ppm] | Minimum Inhibitory Concentration (ppm) SOPP (Bacterial Pool, 24 hours, SOPP alone (QB) or SOPP in mixture with CMIT/MIT (Qb)) [ppm] | Minimum Inhibitory Concentration (ppm) SOPP (Bacterial Pool, 24 hours, SOPP alone (QB) or SOPP in mixture with MIT (Qb)) [ppm] | MIC (Bacterial Pool, 24 hours, BIT alone (QA) or BIT in mixture with SOPP (Qa), read-out: Minimum Inhibitory Concentration (ppm) BIT) [mg/L] | MIC (24 h, read-out: Minimum Inhibitory Concentration (ppm) MIT) [mg/L]
1 | [Na+].[O-]c1ccccc1-c1ccccc1 [SOPP, sodium orthophenylphenate] | 358.5 | 358.5 | 358.5 | 358.5 |  | 
2 | O=c1[nH]sc2ccccc12 [BIT, 1,2-benzisothiazol-3-one] | 400 |  |  |  | 400 | 
3 | Cn1sccc1=O [MIT, 2-Methylisothiazol-3-one] | >95 |  |  |  |  | > 95
